Reference: patent US20080207614A1, “QUINAZOLINE DERIVATIVES FOR THE TREATMENT AND PREVENTION OF DIABETES AND OBESITY” (SK CHEMICALS CO., LTD., priority 2004, published 2008)

Legend:
[1] = tested on: AMPK; experiment: Measurement of AMPK activity by Western blot in C2C12 cells; format: cell-based; design: key to AMPK activity (degree of phosphorylation of serine-79 and threonine-172): fold increase in threonine-172 phosphorylation; settings: 10 μM for 50 minutes; for AMPK activity (degree of phosphorylation of serine-79 and threonine-172): no superscript: Western blot of serine-79 and threonine-172 phosphorylation
Outline: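 Western blot readout of AMPK Thr-172 and ACC Ser-79 phosphorylation, normalised against ERK, served as the activity measure. Cells were C2C12 after differentiation, treated 50 minutes with 10 μM test material. Grading by Thr-172 increase: ≥3-fold strong, 1-3-fold mild, <1-fold weak.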

[2] = tested on: C2C12 muscle cells; experiment: Analysis of glucose absorption (2-deoxyglucose) in differentiated C2C12 muscle cells; format: cell-based; settings: test materials 10 μM, times relative to control group
Outline: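 Uptake of 0.2 μCi 2-deoxyglucose over 20 min, counted radiometrically in lysed cells. Before tracer, compounds (10 μM) were applied for 30 min to C2C12 cells differentiated 6 days in 1% serum and equilibrated 3 h in 5 mM glucose KRB.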

| Compound | AMPK activity (degree of phosphorylation of serine-79 and threonine-172) [1] | AMPK activity (class: degree of phosphorylation of threonine-172) ([1]; strong/mild/weak) | Glucose absorption [2] |
| --- | --- | --- | --- |
| c1ccc(-c2nc(NCc3ccc4c(c3)OCO4)c3ccccc3n2)nc1 [Compound 230, Benzo[1,3]dioxol-5-ylmethyl-(2-pyridino-2-ylquinazolino-4-yl)-amine] | 4.9 | strong (“strong” means that the degree of phosphorylation of threonine-172 increased by 3 times or more) | 1.7 |
| COc1ccc(CNc2nc(C(C)C)nc3ccccc23)c(OC)c1 [Compound 271, (2,4-Dimethoxybenzyl)-(2-isopropylquinazolino-4-yl)-amine] | 2.4 | – | 0.8 |
| COc1ccc(CNc2nc(Cc3ccccc3)nc3ccccc23)c(OC)c1 [Compound 272, (2-Benzylquinazolino-4-yl)-(2,4-dimethoxybenzyl)-amine] | 3.4 | – | 0.4 |
| COc1ccc(COc2nc(-c3ccccc3)nc3ccccc23)c(OC)c1 [Compound 273, 4-(2,4-Dimethoxybenzyloxy)-2-phenylquinazoline] | 1.5 | – | 0.7 |
| COc1ccc(CSc2nc(-c3ccccc3)nc3ccccc23)c(OC)c1 [Compound 274, 4-(2,4-Dimethoxybenzylsulfanyl)-2-phenylquinazoline] | 1.9 | – | 0.8 |
| COc1ccccc1CNc1nc(N2CCCC2)nc2ccccc12 [Compound 275, (2-Methoxybenzyl)-(2-pyrrolidino-1-ylquinazolino-4-yl)-amine] | 2.1 | – | 0.8 |
| COc1ccccc1CNc1nc(N2CCCCC2)nc2ccccc12 [Compound 276, (2-Methoxybenzyl)-(2-piperidino-1-ylquinazolino-4-yl)-amine] | 1.9 | – | 0.8 |
| COc1ccc(CNc2nc(N3CCCC3)nc3ccccc23)cc1 [Compound 283, (4-Methoxybenzyl)-(2-pyrrolidino-1-ylquinazolino-4-yl)-amine] | 1.1 | – | 1.0 |
| COc1ccc(CNc2nc(N3CCOCC3)nc3ccccc23)cc1 [Compound 285, (4-Methoxybenzyl)-(2-morpholino-4-ylquinazolino-4-yl)-amine] | 1.6 | – | 0.8 |
| COc1cccc(CNc2nc(N3CCCCC3)nc3ccccc23)c1OC [Compound 288, (2,3-Dimethoxybenzyl)-(2-piperidino-1-ylquinazolino-4-yl)-amine] | 1.7 | – | 0.8 |
| COc1ccc(CNc2nc(N3CCCC3)nc3ccccc23)c(OC)c1 [Compound 291, (2,4-Dimethoxybenzyl)-(2-pyrrolidino-1-ylquinazolino-4-yl)-amine] | 1.5 | – | 0.8 |
| COc1ccc(CNc2nc(N3CCCCC3)nc3ccccc23)c(OC)c1 [Compound 292, (2,4-Dimethoxybenzyl)-(2-piperidino-1-ylquinazolino-4-yl)-amine] | 1.2 | – | 0.7 |
| COc1ccc(CNc2nc(N3CCOCC3)nc3ccccc23)c(OC)c1 [Compound 293, (2,4-Dimethoxybenzyl)-(2-morpholino-4-ylquinazolino-4-yl)-amine] | 0.1 | – | 0.6 |
| COc1ccc(OC)c(CNc2nc(N3CCCCC3)nc3ccccc23)c1 [Compound 296, (2,5-Dimethoxybenzyl)-(2-piperidino-1-ylquinazolino-4-yl)-amine] | 1.0 | – | 0.9 |
| COc1ccc(OC)c(CNc2nc(N3CCN(C)CC3)nc3ccccc23)c1 [Compound 298, (2,5-Dimethoxybenzyl)-[2-(4-methylpiperazino-1-yl)-quinazolino-4-yl]-amine] | 0.7 | – | 0.6 |
| COc1ccc(CNc2nc(N3CCCC3)nc3ccccc23)cc1OC [Compound 299, (3,4-Dimethoxybenzyl)-(2-pyrrolidino-1-ylquinazolino-4-yl)-amine] | 0.6 | – | 0.8 |
| COc1ccc(CNc2nc(N3CCCCC3)nc3ccccc23)cc1OC [Compound 300, (3,4-Dimethoxybenzyl)-(2-piperidino-1-ylquinazolino-4-yl)-amine] | 1.0 | – | 0.9 |
| COc1ccc(CNc2nc(N3CCOCC3)nc3ccccc23)cc1OC [Compound 301, (3,4-Dimethoxybenzyl)-(2-morpholino-4-ylquinazolino-4-yl)-amine] | 0.9 | – | 0.8 |

| Compound | AMPK activity (degree of phosphorylation of serine-79 and threonine-172) [1] | AMPK activity (class: degree of phosphorylation of threonine-172) ([1]; strong/mild/weak) | Glucose absorption [2] |
| --- | --- | --- | --- |
| COc1ccc(CNc2nc(N3CCN(C)CC3)nc3ccccc23)cc1OC [Compound 302, (3,4-Dimethoxybenzyl)-[2-(4-methylpiperazino-1-yl)-quinazolino-4-yl]-amine] | 1.2 | – | 0.7 |
| COc1cc(CNc2nc(N3CCCC3)nc3ccccc23)cc(OC)c1 [Compound 303, (3,5-Dimethoxybenzyl)-(2-pyrrolidino-1-ylquinazolino-4-yl)-amine] | 1.0 | – | 1.0 |
| COc1cc(CNc2nc(N3CCCCC3)nc3ccccc23)cc(OC)c1 [Compound 304, (3,5-Dimethoxybenzyl)-(2-piperidino-1-ylquinazolino-4-yl)-amine] | 1.4 | – | 0.8 |
| COc1cc(CNc2nc(N3CCOCC3)nc3ccccc23)cc(OC)c1 [Compound 305, (3,5-Dimethoxybenzyl)-(2-morpholino-4-ylquinazolino-4-yl)-amine] | 2.1 | – | 0.8 |
| COc1cc(CNc2nc(N3CCN(C)CC3)nc3ccccc23)cc(OC)c1 [Compound 306, (3,5-Dimethoxybenzyl)-[2-(4-methylpiperazino-1-yl)-quinazolino-4-yl]-amine] | 1.7 | – | 0.8 |
| c1ccc2c(NCc3ccc4c(c3)OCO4)nc(N3CCCC3)nc2c1 [Compound 307, Benzo[1,3]dioxol-5-ylmethyl-(2-pyrrolidino-1-ylquinazolino-4-yl)-amine] | 2.0 | – | 0.8 |
| c1ccc2c(NCc3ccc4c(c3)OCO4)nc(N3CCCCC3)nc2c1 [Compound 308, Benzo[1,3]dioxol-5-ylmethyl-(2-piperidino-1-ylquinazolino-4-yl)-amine] | 2.2 | – | 0.8 |
| c1ccc2c(NCc3ccc4c(c3)OCO4)nc(N3CCOCC3)nc2c1 [Compound 309, Benzo[1,3]dioxol-5-ylmethyl-(2-morpholino-4-ylquinazolino-4-yl)-amine] | 1.3 | – | 0.8 |
| CN1CCN(c2nc(NCc3ccc4c(c3)OCO4)c3ccccc3n2)CC1 [Compound 310, Benzo[1,3]dioxol-5-ylmethyl-[2-(4-methylpiperazino-1-yl)-quinazolino-4-yl]-amine] | 1.6 | – | 0.9 |
| COc1ccccc1CNc1nc(C(C)C)nc2ccccc12 [Compound 321, (2-Isopropylquinazolino-4-yl)-(2-methoxybenzyl)-amine] | 0.9 | – | 1.2 |
| COc1cccc(CNc2nc(C(C)C)nc3ccccc23)c1OC [Compound 322, (2,3-Dimethoxybenzyl)-(2-isopropylquinazolino-4-yl)-amine] | 1.9 | – | 1.4 |
| COc1cc(CNc2nc(C(C)C)nc3ccccc23)cc(OC)c1 [Compound 323, (3,5-Dimethoxybenzyl)-(2-isopropylquinazolino-4-yl)-amine] | 1.2 | – | 1.1 |
| COc1ccc(CNc2nc(C(C)C)nc3ccccc23)cc1OC [Compound 324, (3,4-Dimethoxybenzyl)-(2-isopropylquinazolino-4-yl)-amine] | 2.3 | – | 1.3 |
| COc1cc(CNc2nc(C(C)C)nc3ccccc23)cc(OC)c1OC [Compound 325, (2-Isopropylquinazolino-4-yl)-(3,4,5-trimethoxybenzyl)-amine] | 2.2 | – | 1.2 |
| COc1ccc(OC)c(CNc2nc(C(C)C)nc3ccccc23)c1 [Compound 326, (2,5-Dimethoxybenzyl)-(2-isopropylquinazolino-4-yl)-amine] | 2.9 | – | 1.2 |
| COc1cc(OC)c(CNc2nc(C(C)C)nc3ccccc23)c(OC)c1 [Compound 327, (2-Isopropylquinazolino-4-yl)-(2,4,6-trimethoxybenzyl)-amine] | 4.4 | – | 1.3 |
| COc1ccccc1CNc1nc(Cc2ccccc2)nc2ccccc12 [Compound 328, (2-Benzylquinazolino-4-yl)-(2-methoxybenzyl)-amine] | 3.8 | – | 1.4 |
